Two molecules from PMC3898987 (Bioorganic & Medicinal Chemistry, 2013) can be followed below.

Molecules are shown by their SMILES. Positions count from the first letter of the chain named.

In one assay the target is T1, 5-HT3A receptor D165A (Homo sapiens, UniProt P46098, D160A).
T1 sequence (P46098 24-478 D160A): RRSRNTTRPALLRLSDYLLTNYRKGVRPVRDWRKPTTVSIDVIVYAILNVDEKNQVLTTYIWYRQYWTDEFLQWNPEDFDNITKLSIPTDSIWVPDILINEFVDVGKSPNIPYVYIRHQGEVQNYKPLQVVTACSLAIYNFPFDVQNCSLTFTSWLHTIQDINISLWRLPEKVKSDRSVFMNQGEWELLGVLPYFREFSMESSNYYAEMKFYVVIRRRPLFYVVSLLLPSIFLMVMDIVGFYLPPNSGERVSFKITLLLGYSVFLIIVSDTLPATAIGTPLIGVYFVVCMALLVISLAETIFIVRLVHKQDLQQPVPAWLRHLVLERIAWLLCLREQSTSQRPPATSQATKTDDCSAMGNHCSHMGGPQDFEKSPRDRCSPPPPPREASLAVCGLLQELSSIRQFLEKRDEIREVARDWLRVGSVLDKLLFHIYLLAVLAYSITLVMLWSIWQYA
Put plainly: cell-based.

Assay [1] concerns the target T2, 5-HT3AB receptor, 5-HT3B subunit H73A (Homo sapiens, UniProt O95264+P46098, H66A).
T2 sequence (P46098 24-478): T1 sequence (P46098 24-478 D160A) with A137D
T2 sequence (O95264 22-441 H66A): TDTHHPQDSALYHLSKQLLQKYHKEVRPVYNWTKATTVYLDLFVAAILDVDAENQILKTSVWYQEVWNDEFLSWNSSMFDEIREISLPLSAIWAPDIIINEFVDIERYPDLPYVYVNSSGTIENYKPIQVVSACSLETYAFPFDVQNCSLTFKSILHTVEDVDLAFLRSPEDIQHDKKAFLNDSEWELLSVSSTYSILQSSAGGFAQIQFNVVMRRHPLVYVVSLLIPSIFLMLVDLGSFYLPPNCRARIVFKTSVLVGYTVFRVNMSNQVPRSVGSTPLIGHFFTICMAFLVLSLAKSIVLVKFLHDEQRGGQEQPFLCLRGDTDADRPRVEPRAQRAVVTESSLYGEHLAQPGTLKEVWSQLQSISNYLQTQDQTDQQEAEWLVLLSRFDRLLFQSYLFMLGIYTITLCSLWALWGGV
Briefly: radioligand saturation binding, transfected HEK293 membranes. As to conditions: [3H]-palonosetron saturation, 5-HT3AB with 5-HT3B H73A, 4 °C, 24 h.
Procedure: (§1) Human embryonic kidney (HEK) 293 cells were cultured on 90 mm tissue culture plates at 37 °C and 7% CO2 in a humidified atmosphere. They were grown in DMEM:F12 (Dulbecco’s Modified Eagle’s Medium/Nutrient Mix F12 (1:1)) with GlutaMAX I™ containing 10% fetal calf serum and passaged when confluent. For radioligand binding studies, cells in 90 mm dishes were transfected at 60–70% confluency using polyethyleneimine and incubated for 3–4 days before use. For FlexStation assays, transfected cells were plated on 96-well plates and incubated 1–2 days before assay. […]
(§2) Eight-point binding assays were performed to produce saturation binding curves. […] Radioactive counts were measured using a Beckman LS6000SC liquid scintillation counter (Fullerton, California, USA).
(§3) Data were analyzed by iterative curve fitting using GraphPad Prism v5 (San Diego, CA) according to the following equation: B=Bmax[L]^n/kdn+[L]^n where B is the amount of bound radioligand, Bmax is the maximum specific binding at equilibrium, [L] is the concentration of radioligand, Kd is the equilibrium dissociation constant of the radioligand, and n is the Hill coefficient.

Assay [2] addresses T3, 5-HT3AB receptor, 5-HT3B subunit Y143A (Homo sapiens, UniProt O95264+P46098, Y136A).
T3 sequence (P46098 24-478): T1 sequence (P46098 24-478 D160A) with A137D
T3 sequence (O95264 22-441 Y136A): T2 sequence (O95264 22-441 H66A) with A45H, Y115A
Described as above. The note with it: [3H]-palonosetron saturation, 5-HT3AB with 5-HT3B Y143A, 4 °C, 24 h.
Procedure: as §1, §2, §3

The target in assay [3] is T4, 5-HT3AB receptor, 5-HT3B subunit W90C (Homo sapiens, UniProt O95264+P46098, W83C).
T4 sequence (P46098 24-478): T1 sequence (P46098 24-478 D160A) with A137D
T4 sequence (O95264 22-441 W83C): T2 sequence (O95264 22-441 H66A) with A45H, W62C
Put plainly: FlexStation membrane potential dye functional assay, HEK293 cells. The note with it: 5-HT concentration-response, 5-HT3AB with 5-HT3B W90C.
Procedure: (§4) Human embryonic kidney (HEK) 293 cells were cultured on 90 mm tissue culture plates at 37 °C and 7% CO2 in a humidified atmosphere. They were grown in DMEM:F12 (Dulbecco’s Modified Eagle’s Medium/Nutrient Mix F12 (1:1)) with GlutaMAX I™ containing 10% fetal calf serum and passaged when confluent. […] For FlexStation assays, transfected cells were plated on 96-well plates and incubated 1–2 days before assay.
(§5) Fluorometric studies were undertaken using a FlexStation® (Molecular Devices, Sunnyvale, CA, USA) as previously described.[11]
(§6) Fluorescence was measured every 2 s for 200 s. […] Concentration–response and inhibition curves were obtained for each mutant, and the fluorescence values were normalized to the maximal response.

The target in assay [4] is T2, 5-HT3AB receptor, 5-HT3B subunit H73A. Described as above. The note with it: 5-HT concentration-response, 5-HT3AB with 5-HT3B H73A.
Procedure: as §4, §5, §6

Broadly, the IC50 is the point on the concentration scale where inhibition reaches its midpoint. The low end stands for higher potency, the high end for lower potency. By Kd is commonly meant the free concentration of one partner at which half of the binding sites on the other are occupied at equilibrium, for simple one-to-one binding. Low readings indicate a tighter complex, high ones a looser complex. `O=C1c2cccc3c2[C@H](CCC3)CN1[C@@H]1CN2CCC1CC2` [Palonosetron] gave a half-maximal inhibitory concentration (IC50) against 5-HT3A receptor D165A of 1.33 ± 0.45 nM. Further, the Kd in assay [1] was determined as 0.14 ± 0.02 nM; in assay [2], 0.18 ± 0.04 nM.

Take `NCCc1c[nH]c2ccc(O)cc12` [5-HT, serotonin]: the results for the “Hill Coefficient” value in assay [3] and in assay [4] were 2.0 ± 0.4 and 1.6 ± 0.2, respectively.
